Measurements reported in US5631222A, “Endothelin-antagonizing peptide” (Kyowa Hakko Kogyo Co., Ltd., priority 1993, dated 1997).
pIC50: −log10 of the molar value. Positions of bridges follow the written chain, without caps; N, C: chain ends. Non-standard residues stand in square brackets, D forms with d. Residues, ends and D or L forms follow the SMILES beside them. NMeI = CC[C@H](C)[C@H](NC)C(=O)O; 2Thi = N[C@@H](Cc1cccs1)C(=O)O; Phg = N[C@H](C(=O)O)c1ccccc1; Nle = CCCC[C@H](N)C(=O)O; Nva = CCC[C@H](N)C(=O)O

Biological target: T1, endothelin receptor (Bos taurus, UniProt P28088)
T1 construct: the suspension was used as a membrane fraction liquid; from tissue; host or cells: bovine cerebellum membrane fraction
T1 sequence (P28088 27-441): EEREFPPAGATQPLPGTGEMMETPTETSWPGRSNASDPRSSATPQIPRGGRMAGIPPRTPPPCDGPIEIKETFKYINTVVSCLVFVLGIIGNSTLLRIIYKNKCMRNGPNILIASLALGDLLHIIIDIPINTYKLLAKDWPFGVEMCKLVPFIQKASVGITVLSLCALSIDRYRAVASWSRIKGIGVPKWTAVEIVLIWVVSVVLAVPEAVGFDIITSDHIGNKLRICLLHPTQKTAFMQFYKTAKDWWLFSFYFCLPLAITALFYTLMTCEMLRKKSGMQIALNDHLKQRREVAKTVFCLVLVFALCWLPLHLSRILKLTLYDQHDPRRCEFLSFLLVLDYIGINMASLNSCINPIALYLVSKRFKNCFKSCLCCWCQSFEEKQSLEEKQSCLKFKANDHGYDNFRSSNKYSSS
Assay: Endothelin receptor-antagonizing activity: inhibition of 125I-endothelin-1 binding to bovine cerebellum membrane fraction
Settings: 125I-Endothelin-1, bovine cerebellum membrane fraction, 25° C. for 2 hours; read-out: IC50: Concentration causing 50% inhibition of endothelin1 binding
Protocol: Bovine cerebellum tissue was homogenized at 4° C. by using POLYTRON (type PT10/35, manufactured by Kinematic Gmbh Co.) in a buffer solution A (1 mM NaHCO3, 5 mM ethylenediaminetetraacetic acid, 5 μg/ml leupeptin, 5 μg/ml pepstatin A, 40 μM phenylmethylsulfonyl fluoride, pH 8.3).
The obtained suspension was centrifuged for 10 minutes at 8,000 G and 4° C., and the resulting supernatant was centrifuged for 60 minutes at 40,000 G and 4° C. to obtain pellets. The obtained pellets were suspended in a buffer solution A and again centrifuged for 60 minutes at 40,000 G and 4° C. The resulting solid substance was prepared as a suspension containing 2 mg/ml of protein, and the suspension was used as a membrane fraction liquid. […] These mixtures were incubated at 25° C. for 2 hours, and then filtered with a GF/B glass filter (produced by Whatman Co.). […] The inhibition ratio against endothelin receptor binding activity was calculated according to the following equation:
Inhibition ratio (%)=(C-A/C-B)×100
B: Radioactivity in the presence of unlabelled endothelin-1
C: Radioactivity in the absence of both of the compound shown in Table 2 and unlabelled endothelin-1

Row | Compound | pIC50
1 | H-GNWHGTAPDWVYFAHLEIIW-OH [Compound 43] | 7.77
2 | H-GNWHGTAPDWPYFAHLDIIW-OH [Compound 47] | 8.38
3 | CC[C@H](C)[C@H](NC(=O)[C@H](CC(C)C)NC(=O)[C@@H](NC(=O)[C@H](CC(C)C)NC(=O)[C@H](Cc1c[nH]cn1)NC(=O)[C@H](C)NC(=O)[C@H](Cc1ccccc1)NC(=O)[C@H](Cc1ccc(O)cc1)NC(=O)[C@@H](NC(=O)[C@H](Cc1c[nH]c2ccccc12)NC(=O)[C@@H]1CC(=O)NCC(=O)N[C@@H](CC(N)=O)C(=O)N[C@@H](Cc2c[nH]c3ccccc23)C(=O)N[C@@H](Cc2c[nH]cn2)C(=O)NCC(=O)N[C@@H]([C@@H](C)O)C(=O)N[C@@H](C)C(=O)N2CCC[C@H]2C(=O)N1)C(C)C)[C@@H](C)O)C(=O)N[C@@H](Cc1c[nH]c2ccccc12)C(=O)O [Compound 40] (GNWHGTAPDWVYFAHLTLIW-OH; lactam N-9) | 7.47
4 | CC[C@H](C)[C@H](NC(=O)[C@H](CC(=O)O)NC(=O)[C@H](CC(C)C)NC(=O)[C@H](Cc1c[nH]cn1)NC(=O)[C@H](C)NC(=O)[C@H](Cc1ccccc1)NC(=O)[C@H](Cc1ccc(O)cc1)NC(=O)[C@@H](NC(=O)[C@H](Cc1c[nH]c2ccccc12)NC(=O)[C@@H]1CSSC[C@H](N)C(=O)N[C@@H](CC(N)=O)C(=O)N[C@@H](Cc2c[nH]c3ccccc23)C(=O)N[C@@H](Cc2c[nH]cn2)C(=O)NCC(=O)N[C@@H]([C@@H](C)O)C(=O)N[C@@H](C)C(=O)N2CCC[C@H]2C(=O)N1)C(C)C)C(=O)N[C@H](C(=O)N[C@@H](Cc1c[nH]c2ccccc12)C(=O)O)[C@@H](C)CC [Compound 33] (H-CNWHGTAPCWVYFAHLDIIW-OH; disulfide 1-9) | 9.80
5 | CCCC[C@H](NC(=O)[C@@H](NC(=O)[C@H](CC(C)C)NC(=O)[C@H](Cc1c[nH]cn1)NC(=O)[C@H](C)NC(=O)[C@H](Cc1ccccc1)NC(=O)[C@H](Cc1ccc(O)cc1)NC(=O)[C@@H](NC(=O)[C@H](Cc1c[nH]c2ccccc12)NC(=O)[C@H](CC(=O)O)NC(=O)[C@@H]1CCCN1C(=O)[C@H](C)NC(=O)[C@@H](NC(=O)CNC(=O)[C@H](Cc1c[nH]cn1)NC(=O)[C@H](Cc1c[nH]c2ccccc12)NC(=O)[C@H](CC(N)=O)NC(=O)CN)[C@@H](C)O)C(C)C)[C@@H](C)O)C(=O)N[C@H](C(=O)N[C@@H](Cc1c[nH]c2ccccc12)C(=O)O)[C@@H](C)CC [Compound 26, HGlyAsnTrpHisGlyThrAlaProAspTrpValTyrPheAlaHisLeuThrNleIleTrpOH] (H-GNWHGTAPDWVYFAHLT[Nle]IW-OH) | 9.20
6 | CCC[C@H](NC(=O)[C@H](Cc1c[nH]cn1)NC(=O)[C@H](C)NC(=O)[C@H](Cc1ccccc1)NC(=O)[C@H](Cc1ccc(O)cc1)NC(=O)[C@@H](NC(=O)[C@H](Cc1c[nH]c2ccccc12)NC(=O)[C@H](CC(=O)O)NC(=O)[C@@H]1CCCN1C(=O)[C@H](C)NC(=O)[C@@H](NC(=O)CNC(=O)[C@H](Cc1c[nH]cn1)NC(=O)[C@H](Cc1c[nH]c2ccccc12)NC(=O)[C@H](CC(N)=O)NC(=O)CN)[C@@H](C)O)C(C)C)C(=O)N[C@H](C(=O)N[C@@H](Cc1cccs1)C(=O)N[C@H](C(=O)N[C@@H](Cc1c[nH]c2ccccc12)C(=O)O)[C@@H](C)CC)[C@@H](C)O [Compound 29, HGlyAsnTrpHisGlyThrAlaProAspTrpValTyrPheAlaHisNvaThrThiIleTrpOH] (H-GNWHGTAPDWVYFAH[Nva]T[2Thi]IW-OH) | 9.43
7 | CC[C@H](C)[C@H](NC(=O)[C@H]([C@@H](C)CC)N(C)C(=O)[C@@H](NC(=O)[C@H](CC(C)C)NC(=O)[C@H](Cc1c[nH]cn1)NC(=O)[C@H](C)NC(=O)[C@H](Cc1ccccc1)NC(=O)[C@H](Cc1ccc(O)cc1)NC(=O)[C@@H](NC(=O)[C@H](Cc1c[nH]c2ccccc12)NC(=O)[C@H](CC(=O)O)NC(=O)[C@@H]1CCCN1C(=O)[C@H](C)NC(=O)[C@@H](NC(=O)CNC(=O)[C@H](Cc1c[nH]cn1)NC(=O)[C@H](Cc1c[nH]c2ccccc12)NC(=O)[C@H](CC(N)=O)NC(=O)CN)[C@@H](C)O)C(C)C)[C@@H](C)O)C(=O)N[C@@H](Cc1c[nH]c2ccccc12)C(=O)O [Compound 24, HGlyAsnTrpHisGlyThrAlaProAspTrpValTyrPheAlaHisLeuThrMeIleIleTrpOH] (H-GNWHGTAPDWVYFAHLT[NMeI]IW-OH) | 7.30
8 | CC[C@H](C)[C@H](NC(=O)[C@H](Cc1cccs1)NC(=O)[C@@H](NC(=O)[C@H](CC(C)C)NC(=O)[C@H](Cc1c[nH]cn1)NC(=O)[C@H](C)NC(=O)[C@H](Cc1ccccc1)NC(=O)[C@H](Cc1ccc(O)cc1)NC(=O)[C@@H](NC(=O)[C@H](Cc1c[nH]c2ccccc12)NC(=O)[C@@H]1CSSC[C@H](N)C(=O)N[C@@H](CC(=O)O)C(=O)N[C@@H](Cc2c[nH]c3ccccc23)C(=O)N[C@@H](CCCCN)C(=O)NCC(=O)N[C@@H]([C@@H](C)O)C(=O)N[C@@H](CO)C(=O)N2CCC[C@H]2C(=O)N1)C(C)C)[C@@H](C)O)C(=O)N[C@@H](Cc1c[nH]c2ccccc12)C(=O)O [Compound 35] (H-CDWKGTSPCWVYFAHLT[2Thi]IW-OH; disulfide 1-9) | 8.80
9 | CC[C@H](C)[C@H](NC(=O)[C@H](CCSC)NC(=O)[C@H](CO)NC(=O)[C@H](CC(C)C)NC(=O)[C@H](Cc1c[nH]cn1)NC(=O)[C@H](C)NC(=O)[C@@H](Cc1ccccc1)NC(=O)[C@H](Cc1ccc(O)cc1)NC(=O)[C@@H](NC(=O)[C@H](Cc1c[nH]c2ccccc12)NC(=O)[C@H](CC(=O)O)NC(=O)[C@@H]1CCCN1C(=O)[C@H](C)NC(=O)[C@@H](NC(=O)CNC(=O)[C@H](Cc1c[nH]cn1)NC(=O)[C@H](Cc1c[nH]c2ccccc12)NC(=O)[C@H](CC(N)=O)NC(=O)CN)[C@@H](C)O)C(C)C)C(=O)N[C@@H](Cc1c[nH]c2ccccc12)C(=O)O [Compound 45, HGlyAsnTrpHisGlyThrAlaProAspTrpValTyrD-PheAlaHisLeuSerMetIleTrpOH] (H-GNWHGTAPDWVY[dF]AHLSMIW-OH) | 8.48
10 | CC[C@H](C)[C@H](NC(=O)[C@H](CC(C)C)NC(=O)[C@@H](NC(=O)[C@H](CC(C)C)NC(=O)[C@H](Cc1c[nH]cn1)NC(=O)[C@H](C)NC(=O)[C@H](Cc1ccccc1)NC(=O)[C@H](Cc1ccc(O)cc1)NC(=O)[C@@H](NC(=O)[C@H](Cc1c[nH]c2ccccc12)NC(=O)[C@@H]1CSSC[C@H](N)C(=O)N[C@@H](CC(N)=O)C(=O)N[C@@H](Cc2c[nH]c3ccccc23)C(=O)N[C@@H](Cc2c[nH]cn2)C(=O)NCC(=O)N[C@@H]([C@@H](C)O)C(=O)N[C@@H](C)C(=O)N2CCC[C@H]2C(=O)N1)C(C)C)[C@@H](C)O)C(=O)N[C@@H](Cc1c[nH]c2ccccc12)C(=O)O [Compound 37] (H-CNWHGTAPCWVYFAHLTLIW-OH; disulfide 1-9) | 8.06
11 | H-NWHGTAPDWVYFAHLDIIW-OH [Compound 7, HAsnTrpHisGlyThrAlaProAspTrpValTyrPheAlaHisLeuAspIleIleTrpOH] | 10.00
12 | H-GNWHTTAPDWVYFAHLDIIW-OH [Compound 2, HGlyAsnTrpHisThrThrAlaProAspTrpValTyrPheAlaHisLeuAspIleleTrpOH] | 10.21
13 | CC[C@H](C)[C@H](NC(=O)[C@@H](NC(=O)[C@@H](NC(=O)[C@H](CC(C)C)NC(=O)[C@H](Cc1c[nH]cn1)NC(=O)[C@H](C)NC(=O)[C@H](Cc1ccccc1)NC(=O)[C@H](Cc1ccc(O)cc1)NC(=O)[C@@H](NC(=O)[C@H](Cc1c[nH]c2ccccc12)NC(=O)[C@H](CC(=O)O)NC(=O)[C@@H]1CCCN1C(=O)[C@H](C)NC(=O)[C@@H](NC(=O)CNC(=O)[C@H](Cc1c[nH]cn1)NC(=O)[C@H](Cc1c[nH]c2ccccc12)NC(=O)[C@H](CC(N)=O)NC(=O)CN)[C@@H](C)O)C(C)C)[C@@H](C)O)c1ccccc1)C(=O)N[C@@H](Cc1c[nH]c2ccccc12)C(=O)O [Compound 25, HGlyAsnTrpHisGlyThrAlaProAspTrpValTyrPheAlaHisLeuThrPhgIleTrpOH] (H-GNWHGTAPDWVYFAHLT[Phg]IW-OH) | 9.24
14 | H-GNWHGTAPDWVYFAHLDLIW-OH [Compound 16] | 8.27
15 | CC[C@H](C)[C@H](NC(=O)[C@H](CC(=O)O)NC(=O)[C@H](CC(C)C)NC(=O)[C@H](Cc1c[nH]cn1)NC(=O)[C@H](C)NC(=O)[C@H](Cc1ccccc1)NC(=O)[C@H](Cc1ccc(O)cc1)NC(=O)[C@@H](NC(=O)[C@H](Cc1c[nH]c2ccccc12)NC(=O)[C@@H]1CC(=O)NCC(=O)N[C@@H](Cc2ccc(O)cc2)C(=O)N2CCC[C@H]2C(=O)N[C@@H](Cc2c[nH]c3ccccc23)C(=O)N[C@@H](Cc2c[nH]c3ccccc23)C(=O)N[C@@H](CC(N)=O)C(=O)N[C@@H](Cc2ccc(O)cc2)C(=O)N[C@@H](CCCNC(=N)N)C(=O)N1)C(C)C)C(=O)N[C@H](C(=O)N[C@@H](Cc1c[nH]c2ccccc12)C(=O)O)[C@@H](C)CC [Compound 52] (GYPWWNYRDWVYFAHLDIIW-OH; lactam N-9) | 7.72
16 | H-GNWHGTAPDWVYFAHLTMIW-OH [Compound 18] | 8.77
17 | H-GNWHGGAPDWVYFAHLDIIW-OH [Compound 3] | 10.19
